Reference: article PMC10060354, “Discovery of a small molecule ligand of FRS2 that inhibits invasion and tumor growth” (Cellular Oncology, 2022)
Where “and” joins values, the source holds several entries; their conditions need not be identical. Identical values can stand only once. Like-named read-outs stand apart in the source and are kept apart here.

Key:
[1] = tested on: bFGF-sensitive (M059K, RT-112, SW780) and bFGF-insensitive (SKOV3, AGS and HCT116) cell lines; experiment: SIA, collagen I invasion in panel of human cancer cell models; format: cell-based; conditions: 10 µM
Procedure: (§1) 1000—2500 cells/well in 100 μl were seeded in 96 well Corning® Spheroid microplate (CLS4520, Sigma-Aldrich) or in cell-repellent 96 well microplate (650,790, Greiner Bio-one). SIA and analysis was performed as described before. In brief: After spheroid formation (24 – 72 h after seeding), 70 µl medium was removed and replaced with the collagen mixture (2.5 mg/ml Pure Col Collagen I (Advanced Biomatrix)), DMEM 1x (from 10 × stock, Sigma, D2429) and 0.4% Sodium bicarbonate (Sigma, S8761)), resulting in a final collagen concentration of 1.75 mg/ml. Embedded spheroids were stimulated with bFGF (100 ng/ml if not otherwise stated), HGF (30 ng /ml) or EGF (20 ng/ml) and distance of invaded cells quantified 24 – 48 h after embedding. Compounds and BGJ398 were added in Dimethylsulfoxid (DMSO) and corresponding DMSO concentrations were used in control samples.

[2] = tested on: ERK (pT202/Y204); experiment: Immunoblotting, ERK phosphorylation; format: cell-based, human
Procedure: (§2) Cells were serum starved o.n. and 10 µM compound or 1 µM (BGJ398) were added 3 h before stimulation with 100 ng/ml bFGF for 15 min. Cells were lysed in RIPA buffer containing protease inhibitor cocktail and lysates resolved by SDS-PAGE. Membranes were probed with primary antibodies against phospho-FRS2, FRS2, phospho-ERK1/2, ERK1/2, pAKT, AKT and tubulin. Integrated density of immuno-reactive bands was quantified using Adobe Photoshop CS3. Integrated densities of phospho bands relative to non-phospho bands of same protein were calculated and plotted as fold-change relative to untreated control conditions. Compounds and BGJ398 were added in DMSO and corresponding DMSO concentrations were used in control samples.

[3] = tested on: human cancer cell lines; experiment: CellTiter-Glo viability (2D culture or 3D spheroids), cell line panel; format: cell-based; conditions: DAOY, AGS and HCT116 cells; between 2.7 and 20 µM; 48 h
Procedure: Cell viability was determined using CellTiter-Glo® 2D or 3D cell viability assays (#G9242, #G9682, Promega). 500 cells/25 µl were seeded in flat bottom (#781,091, Greiner bio-one) or U-low adhesion (#4516, Corning) 384-well plate, 24 h prior to treatment. Increasing concentrations of compounds are deposited on cells using a HP Digital Drug Dispenser with DMSO total volume normalization. After 48 h, the CellTiter-Glo® 2D or 3D reagent was added (volume/volume) following manufacturer’s instructions. Plates were incubated at RT (room temperature) under agitation for 30 min and luminescence representing the number of viable cells was quantified with a Cytation 3 imaging reader (BioTek®). Experiments were performed independently three times with three technical replicas each.

[4] = tested on: DAOY cells; experiment: SIA, EGF-induced cell invasion; format: cell-based, human; conditions: 10 µM
Procedure: as §1

[5] = tested on: FRS2 (Y436) phosphorylation; experiment: Immunoblotting, FRS2 phosphorylation; format: cell-based, human
Procedure: as §2

[6] = tested on: AGS; experiment: SIA, collagen I invasion; format: cell-based; conditions: Homo sapiens, 10 µM
Procedure: as §1

[7] = tested on: SKOV3; experiment: SIA, collagen I invasion; format: cell-based; conditions: Homo sapiens, SK-OV-3, 10 µM
Procedure: as §1

[8] = In vivo bioavailability / PK after 1 mg/kg IV or 10 mg/kg PO; parameters: species or system Male ICR mice; conditions: for Vd: read-out: Vss; for C0: read-out: C0 after IV administration
Procedure: In vivo bioavailability studies were performed by Pharmacology Discovery Services Taiwan, Ltd., (New Taipei City, Taiwan). Male ICR mice weighing 20—30 g were provided by BioLasco Taiwan (under Charles River Laboratories Licensee). Animals were acclimated for 3 days prior to use and were confirmed with good health. All animals were maintained in a hygienic environment with controlled temperature (20—24 °C), humidity (30%—70%) and 12 h light/dark cycles. Free access to sterilized standard lab diet [MFG (Oriental Yeast Co., Ltd., Japan)] and autoclaved tap water. A pharmacokinetic (PK) study was performed in male ICR mice following intravenous (IV) and oral (PO) administration of compound 7 and E12 and IV administration of the test compound 3.14. The three test compounds (7, E12 and 3.14) were formulated in 1% dimethyl sulfoxide (DMSO)/10% Solutol® HS-15/ phosphate buffered saline (PBS) at 0.2 mg/mL and 1 mg/mL for IV and PO administration, respectively. The dosing volumes were 5 ml/kg for IV and 10 ml/kg for PO. The dose was 1 mg/kg for IV and 10 mg/kg for PO routes.

[9] = male, ICR, mouse, plasma, iv, 1 mg/kg, IV, read-out: AUClast
[10] = male, ICR, mouse, plasma, iv, 1 mg/kg, mice, 1 mg/kg IV, read-out: AUClast after IV administration
[11] = male, ICR, mouse, plasma, 1 mg/kg, IV
[12] = male, ICR, mouse, mice, 1 mg/kg IV, plasma
[13] = 10 mg/kg PO, time 0.167 h, mouse#1-3
[14] = 10 mg/kg PO, time 0.5 h, mouse#1-3
[15] = 10 mg/kg PO, time 1 h, mouse#1-3
[16] = 10 mg/kg PO, time 2 h, mouse#1-3
[17] = 10 mg/kg PO, time 4 h, mouse#1-3
[18] = 10 mg/kg PO, time 6 h, mouse#1-3
[19] = 10 mg/kg PO, time 8 h, mouse#1-3
[20] = 10 mg/kg PO, time 24 h, mouse#1-3
[21] = male, ICR, mouse, plasma, 10 mg/kg, PO
[22] = mg/kg IV, time 0.167 h, mouse#1-3
[23] = mg/kg IV, time 0.5 h, mouse#1-3

COc1ncc(C(C)NC2CC(C)(C)NC(C)(C)C2)cc1Cl (stereo not shown) [Compound 3.3]
collagen I invasion across cancer cell lines (result in words) [1]: significant repression of collagen I invasion only in SKOV3 and M059K cells

N#Cc1c(Cl)cc(O)c2c1C1C=CCC1C(c1ccc(Cl)cc1)N2 (stereo not shown) [Compound 14]
basal and bFGF-induced phosphorylation of ERK (result in words) ([2]; DAOY, SW780, M059K, SKOV3, AGS, DMS114 and RT-112 cells, 10 µM compound or 1 µM BGJ398): inhibited basal and bFGF-induced phosphorylation | reduction of viability [3]: more than 50% | collagen I invasion across cancer cell lines (result in words) [1]: inhibited collagen I invasion in both bFGF-sensitive and bFGF-insensitive cell lines | effect on EGF-induced cell invasion (result in words) [4]: only moderately reduced | basal and bFGF-induced phosphorylation of FRS2Y436 (result in words) ([5]; RT-112 cells): reduced basal and bFGF-induced phosphorylation

CC(C)C[C@@H](CO)NCc1cc(O)c2cc(F)ccc2n1 [Compound 3.14]
inhibition at 10 µM [6]: ~50% | inhibition at 10 µM [7]: ~50% | pERK (result in words) ([2]; SW780 and AGS cells, 10 µM): significantly reduced pERK | AUC Extr (%) ([8]; 1 mg/kg, IV): 0.5% | AUC(0-t) [8, 9]: 410 ng·h/mL | AUC(0-t) [8, 10]: 413 ng·h/mL | AUC(0-inf) [8, 11]: 413 ng·h/mL | MRT [8, 11]: 31.2 min | clearance [8, 11]: 40 mL/min/kg | half-life [8, 11]: 93 min | Vd [8, 11]: 1.3 L/kg | C0 [8, 12]: 2700 ng/mL | CL1/2 after IV administration ([8]; mice, 1 mg/kg IV): 1.55 h | basal or bFGF-induced Y436 phosphorylation of FRS2 (result in words) ([5]; DAOY or SW780 cells, 10 µM compound): not effective in SW780 cells

Cc1[nH]nc(-c2ccc(O)c(C)c2O)c1-c1nc2ccccc2s1 [Compound E12]
AUC Extr (%) ([8]; 1 mg/kg, IV): 0.5% | in vivo PK raw, level per mouse [8, 13]: 13 and 10 and 15 | in vivo PK raw, level per mouse (µM) [8, 13]: 0.02964 µM and 0.04446 µM | in vivo PK raw, level per mouse [8, 14]: 16 and 11 and 3 | in vivo PK raw, level per mouse (µM) [8, 14]: 0.04742 µM and 0.0326 µM and 0.008892 µM | in vivo PK raw, level per mouse [8, 15]: 1 and 2 and 10 | in vivo PK raw, level per mouse (µM) [8, 15]: 0.002964 µM and 0.005928 µM and 0.02964 µM | in vivo PK raw, level per mouse [8, 16]: 3 and 0 and 2 | in vivo PK raw, level per mouse (µM) [8, 16]: 0.008892 µM and 0 µM and 0.005928 µM | in vivo PK raw, level per mouse [8, 17]: 5 and 2 (2×) | in vivo PK raw, level per mouse (µM) [8, 17]: 0.01482 µM and 0.005928 µM (2×) | in vivo PK raw, level per mouse [8, 18]: 0 (2×) and 2 | in vivo PK raw, level per mouse (µM) [8, 18]: 0 µM (2×) and 0.005928 µM | in vivo PK raw, level per mouse [8, 19]: 1 | in vivo PK raw, level per mouse (µM) [8, 19]: 0.002964 µM | in vivo PK raw, level per mouse [8, 20]: 0 | in vivo PK raw, level per mouse (µM) [8, 20]: 0 µM | AUC Extr (%) ([8]; 10 mg/kg, PO): 14.8% | AUC/D ([8]; 10 mg/kg, PO): 3 kg·ng·h/mL/mg | AUClast (H*ng/ml) ([8]; 10 mg/kg, PO): 22 H*ng/ml | AUC(0-t) [8, 9]: 85 ng·h/mL | concentration at 0.167 h ([8]; male, ICR, mouse, plasma, iv, 1 mg/kg, mg/kg IV, time 0.167 h, mouse#1-3, read-out: in vivo PK raw, level per mouse): 1360 nM | concentration at 0.5 h ([8]; male, ICR, mouse, plasma, iv, 1 mg/kg, mg/kg IV, time 0.5 h, mouse#1-3, read-out: in vivo PK raw, level per mouse): 305 nM | concentration at 1 h ([8]; male, ICR, mouse, plasma, iv, 1 mg/kg, mg/kg IV, time 1 h, mouse#1-3, read-out: in vivo PK raw, level per mouse): 29.6 nM | concentration at 2 h ([8]; male, ICR, mouse, plasma, iv, 1 mg/kg, mg/kg IV, time 2 h, mouse#1-3, read-out: in vivo PK raw, level per mouse): 5.93 nM | concentration at 4 h ([8]; male, ICR, mouse, plasma, iv, 1 mg/kg, mg/kg IV, time 4 h, mouse#1-3, read-out: in vivo PK raw, level per mouse): 0 nM | concentration at 6 h ([8]; male, ICR, mouse, plasma, iv, 1 mg/kg, mg/kg IV, time 6 h, mouse#1-3, read-out: in vivo PK raw, level per mouse): 0 nM | concentration at 8 h ([8]; male, ICR, mouse, plasma, iv, 1 mg/kg, mg/kg IV, time 8 h, mouse#1-3, read-out: in vivo PK raw, level per mouse): 0 nM | concentration at 24 h ([8]; male, ICR, mouse, plasma, iv, 1 mg/kg, mg/kg IV, time 24 h, mouse#1-3, read-out: in vivo PK raw, level per mouse): 0 nM | AUC(0-t) [8, 10]: 85 ng·h/mL | concentration at 0.167 h ([8]; male, ICR, mouse, plasma, oral, 10 mg/kg, 10 mg/kg PO, time 0.167 h, mouse#1-3, read-out: in vivo PK raw, level per mouse): 38.5 nM | concentration at 8 h ([8]; male, ICR, mouse, plasma, oral, 10 mg/kg, 10 mg/kg PO, time 8 h, mouse#1-3, read-out: in vivo PK raw, level per mouse): 2.96 nM | concentration at 24 h ([8]; male, ICR, mouse, plasma, oral, 10 mg/kg, 10 mg/kg PO, time 24 h, mouse#1-3, read-out: in vivo PK raw, level per mouse): 0 nM | AUC(0-t) ([8]; male, ICR, mouse, plasma, po, 10 mg/kg, mice, 10 mg/kg PO, read-out: AUClast after PO administration): 22 ng·h/mL | AUC(0-inf) [8, 11]: 86 ng·h/mL | MRT [8, 11]: 6.6 min | clearance [8, 11]: 195 mL/min/kg | half-life [8, 11]: 9 min | Vd [8, 11]: 1.3 L/kg | AUC(0-inf) [8, 21]: 26 ng·h/mL | MRT [8, 21]: 233 min | Tmax [8, 21]: 10.2 min | bioavailability [8, 21]: 3% | half-life [8, 21]: 163 min | C0 [8, 12]: 762 ng/mL | Cmax ([8]; male, ICR, mouse, mice, 10 mg/kg PO, plasma, read-out: Cmax (oral bioavailability) after PO administration): 13 ng/mL | in vivo PK raw, level per mouse [8, 22]: 459 and 369 and 455 | in vivo PK raw, level per mouse (µM) [8, 22]: 1.094 µM and 1.349 µM | in vivo PK raw, level per mouse [8, 23]: 103 and 104 and 127 | in vivo PK raw, level per mouse (µM) [8, 23]: 0.3082 µM and 0.3764 µM | in vivo PK raw, level per mouse ([8]; mg/kg IV, time 1 h, mouse#1-3): 10 and 13 and 14 | in vivo PK raw, level per mouse (µM) ([8]; mg/kg IV, time 1 h, mouse#1-3): 0.03853 µM and 0.04149 µM | in vivo PK raw, level per mouse ([8]; mg/kg IV, time 2 h, mouse#1-3): 2 | in vivo PK raw, level per mouse (µM) ([8]; mg/kg IV, time 2 h, mouse#1-3): 0.005928 µM | in vivo PK raw, level per mouse ([8]; mg/kg IV, time 4 h, mouse#1-3): 0 | in vivo PK raw, level per mouse (µM) ([8]; mg/kg IV, time 4 h, mouse#1-3): 0 µM | in vivo PK raw, level per mouse ([8]; mg/kg IV, time 6 h, mouse#1-3): 0 | in vivo PK raw, level per mouse (µM) ([8]; mg/kg IV, time 6 h, mouse#1-3): 0 µM | in vivo PK raw, level per mouse ([8]; mg/kg IV, time 8 h, mouse#1-3): 0 | in vivo PK raw, level per mouse (µM) ([8]; mg/kg IV, time 8 h, mouse#1-3): 0 µM | in vivo PK raw, level per mouse ([8]; mg/kg IV, time 24 h, mouse#1-3): 0 | in vivo PK raw, level per mouse (µM) ([8]; mg/kg IV, time 24 h, mouse#1-3): 0 µM | CL1/2 after IV administration ([8]; mice, 1 mg/kg IV): 0.15 h | CL1/2 after PO administration ([8]; mice, 10 mg/kg PO): 2.71 h | collagen I invasion across cancer cell lines (result in words) [1]: inhibited collagen I invasion only in bFGF-sensitive cell lines M059K, RT-112 and SW780
